Measured values published in patent EP4682145A1, “BENZOHETEROCYCLIC COMPOUND, AND PREPARATION METHOD THEREFOR AND USE THEREOF” (Cascade Pharmaceuticals, Inc., priority 2023, dated 2024).

Biological target: T1, human FFAR1 (GPR40) (Homo sapiens, UniProt O14842)
T1 construct: Flag; expressed in transfected cells; host or cells: HEK293T
Assay: NFAT-RE-based reporter gene activity assay (Dual-Glo luciferase) for GPR40 agonistic activity in co-transfected HEK293T cells
Assay type: cell-based
Settings: 4-hour treatment; for Efficacy (%): class symbols
Procedure, shortened: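 HEK293T cells co-transfected with human FFAR1, NFAT-RE firefly luciferase and TK-Renilla plasmids; 24 h later treated 4 h with 10 half-log compound dilutions from 1 µM. Firefly/Renilla ratio normalised to DMSO; EC50 from four-parameter fit.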

T1 sequence (O14842 whole entry): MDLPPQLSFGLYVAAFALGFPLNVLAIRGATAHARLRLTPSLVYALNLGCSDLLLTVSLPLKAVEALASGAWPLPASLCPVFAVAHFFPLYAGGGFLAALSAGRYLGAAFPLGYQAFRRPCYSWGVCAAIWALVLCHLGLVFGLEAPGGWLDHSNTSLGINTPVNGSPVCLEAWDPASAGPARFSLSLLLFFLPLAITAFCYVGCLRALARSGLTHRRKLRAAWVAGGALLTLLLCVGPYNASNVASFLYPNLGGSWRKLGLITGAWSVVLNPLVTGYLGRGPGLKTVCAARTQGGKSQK

Structure (SMILES): COc1cccc(N2CCC(c3oc4cc([C@@H](CC(=O)O)C5CC5)ccc4c3C(=O)Nc3cc(OC(F)(F)F)ccc3Cl)CC2)c1 [Compound 277]
- EC50: > 500 nM
- Efficacy (%): ††††

Structure (SMILES): CCc1ccc(Cl)c(NC(=O)c2c(C3CCN(c4cccc(OC)c4)CC3)oc3cc([C@@H](CC(=O)O)C4CC4)ccc23)c1 [Compound 278]
- EC50: < 10 nM
- Efficacy (%): ††††

Structure (SMILES): COc1cccc(N2CCC(c3oc4cc([C@@H](CC(=O)O)C5CC5)ccc4c3C(=O)Nc3cc(C4CC4)ccc3Cl)CC2)c1 [Compound 279]
- EC50: > 500 nM
- Efficacy (%): †† (150 ≥ Efficacy (%) > 100)

Structure (SMILES): COc1cccc(N2CCC(c3oc4cc([C@@H](CC(=O)O)C5CC5)ccc4c3C(=O)Nc3cc(-c4ccccc4)ccc3Cl)CC2)c1 [Compound 280]
- EC50: 100 to 500 nM
- Efficacy (%): †† (150 ≥ Efficacy (%) > 100)

Structure (SMILES): COc1cccc(N2CCC(c3oc4cc([C@@H](CC(=O)O)C5CC5)ccc4c3C(=O)N(C)c3cc(C(F)(F)F)ccc3Cl)CC2)c1 [Compound 281]
- EC50: 100 to 500 nM
- Efficacy (%): †† (150 ≥ Efficacy (%) > 100)

Structure (SMILES): COc1cccc(N2CCC(c3oc4cc([C@@H](CC(=O)O)C5CC5)ccc4c3C(=O)Nc3cc(C#N)ccc3Cl)CC2)c1 [Compound 282]
- EC50: 10 to 100 nM
- Efficacy (%): †† (150 ≥ Efficacy (%) > 100)

Structure (SMILES): COc1cccc(N2CCC(c3oc4cc([C@@H](CC(=O)O)C5CC5)ccc4c3C(=O)Nc3cc(C(C)=O)ccc3Cl)CC2)c1 [Compound 283]
- EC50: 10 to 100 nM
- Efficacy (%): ††† (Efficacy (%) > 150)

Structure (SMILES): COc1cccc(N2CCC(c3oc4cc([C@@H](CC(=O)O)C5CC5)ccc4c3C(=O)Nc3cc(N4CCCCC4)ccc3Cl)CC2)c1 [Compound 284]
- EC50: ≤ 10 nM
- Efficacy (%): †† (150 ≥ Efficacy (%) > 100)

Structure (SMILES): COc1cccc(N2CCC(c3oc4cc([C@@H](CC(=O)O)C5CC5)ccc4c3C(=O)Nc3cc(N4CCOCC4)ccc3Cl)CC2)c1 [Compound 285]
- EC50: ≤ 10 nM
- Efficacy (%): †† (150 ≥ Efficacy (%) > 100)

Structure (SMILES): COc1cccc(N2CCC(c3oc4cc([C@@H](CC(=O)O)C5CC5)ccc4c3C(=O)Nc3cc(NC(C)=O)ccc3Cl)CC2)c1 [Compound 286]
- EC50: 100 to 500 nM
- Efficacy (%): †† (150 ≥ Efficacy (%) > 100)

Structure (SMILES): COc1cccc(N2CCC(c3oc4cc(C(CC(=O)O)C5CC5)ccc4c3C(=O)Nc3c(F)cc(F)cc3F)CC2)c1 (stereo not shown) [Compound 288]
- EC50: 100 to 500 nM
- Efficacy (%): †† (150 ≥ Efficacy (%) > 100)

Structure (SMILES): COc1cccc(N2CCC(c3oc4cc(C(CC(=O)O)C5CC5)ccc4c3C(=O)Nc3nccs3)CC2)c1 (stereo not shown) [Compound 290]
- EC50: 100 to 500 nM
- Efficacy (%): †† (150 ≥ Efficacy (%) > 100)

Structure (SMILES): COc1cccc(N2CCC(c3oc4cc(C(CC(=O)O)C5CC5)ccc4c3C(=O)Nc3ncns3)CC2)c1 (stereo not shown) [Compound 293]
- EC50: 100 to 500 nM
- Efficacy (%): †† (150 ≥ Efficacy (%) > 100)

Structure (SMILES): COc1cccc(N2CCC(c3oc4cc(C(CC(=O)O)C5CC5)ccc4c3C(=O)Nc3noc4ccccc34)CC2)c1 (stereo not shown) [Compound 296]
- EC50: 100 to 500 nM
- Efficacy (%): ††† (Efficacy (%) > 150)

Structure (SMILES): COc1cccc(N2CCC(c3oc4cc(C(CC(=O)O)C5CC5)ccc4c3C(=O)Nc3nc4ccccc4s3)CC2)c1 (stereo not shown) [Compound 297]
- EC50: 100 to 500 nM
- Efficacy (%): †† (150 ≥ Efficacy (%) > 100)

Structure (SMILES): COc1cccc(N2CCC(c3oc4cc(C(CC(=O)O)C5CC5)ccc4c3C(=O)Nc3nc(C(C)(C)C)cs3)CC2)c1 (stereo not shown) [Compound 298]
- EC50: 100 to 500 nM
- Efficacy (%): †† (150 ≥ Efficacy (%) > 100)

Structure (SMILES): COc1cccc(N2CCC(c3oc4cc(C(CC(=O)O)C5CC5)ccc4c3C(=O)Nc3ncc(C(C)(C)C)s3)CC2)c1 (stereo not shown) [Compound 299]
- EC50: 100 to 500 nM
- Efficacy (%): †† (150 ≥ Efficacy (%) > 100)

Structure (SMILES): COc1cccc(N2CCC(c3oc4cc(C(CC(=O)O)C5CC5)ccc4c3C(=O)Nc3cc(C(C)(C)C)on3)CC2)c1 (stereo not shown) [Compound 300]
- EC50: 100 to 500 nM
- Efficacy (%): †† (150 ≥ Efficacy (%) > 100)

Structure (SMILES): COc1cccc(N2CCC(c3oc4cc(C(CC(=O)O)C5CC5)ccc4c3C(=O)Nc3cc(C(C)(C)C)no3)CC2)c1 (stereo not shown) [Compound 301]
- EC50: 100 to 500 nM
- Efficacy (%): †† (150 ≥ Efficacy (%) > 100)

Structure (SMILES): COc1cccc(N2CCC(c3oc4cc(C(CC(=O)O)C5CC5)ccc4c3C(=O)Nc3cc(-c4ccccc4)nn3C)CC2)c1 (stereo not shown) [Compound 302]
- EC50: 100 to 500 nM
- Efficacy (%): † (100 ≥ Efficacy (%) > 50)

Structure (SMILES): COc1cccc(N2CCC(c3oc4cc(C(CC(=O)O)C5CC5)ccc4c3C(=O)Nc3nccn3C)CC2)c1 (stereo not shown) [Compound 304]
- EC50: 100 to 500 nM
- Efficacy (%): ††† (Efficacy (%) > 150)

Structure (SMILES): COc1ccc(F)c(N2CCC(c3oc4cc(C(CC(=O)O)C5CC5)ccc4c3C(=O)NC(C)(C)C)CC2)c1 (stereo not shown) [Compound 305]
- EC50: 100 to 500 nM
- Efficacy (%): †† (150 ≥ Efficacy (%) > 100)

Structure (SMILES): COc1ccc(F)c(N2CCC(c3oc4cc(C(CC(=O)O)C5CC5)ccc4c3C(=O)NCC(C)(C)C)CC2)c1 (stereo not shown) [Compound 306]
- EC50: 100 to 500 nM
- Efficacy (%): †† (150 ≥ Efficacy (%) > 100)

Structure (SMILES): COc1ccc(F)c(N2CCC(c3oc4cc(C(CC(=O)O)C5CC5)ccc4c3C(=O)NCCC(C)(C)C)CC2)c1 (stereo not shown) [Compound 307]
- EC50: 100 to 500 nM
- Efficacy (%): †† (150 ≥ Efficacy (%) > 100)

Structure (SMILES): COc1ccc(F)c(N2CCC(c3oc4cc(C(CC(=O)O)C5CC5)ccc4c3C(=O)NC3CC3)CC2)c1 (stereo not shown) [Compound 308]
- EC50: > 500 nM
- Efficacy (%): †† (150 ≥ Efficacy (%) > 100)

Structure (SMILES): COc1ccc(F)c(N2CCC(c3oc4cc(C(CC(=O)O)C5CC5)ccc4c3C(=O)NCC3CC3)CC2)c1 (stereo not shown) [Compound 309]
- EC50: 100 to 500 nM
- Efficacy (%): †† (150 ≥ Efficacy (%) > 100)

Structure (SMILES): COc1ccc(F)c(N2CCC(c3oc4cc(C(CC(=O)O)C5CC5)ccc4c3C(=O)NCC(C)C)CC2)c1 (stereo not shown) [Compound 310]
- EC50: 100 to 500 nM
- Efficacy (%): †† (150 ≥ Efficacy (%) > 100)

Structure (SMILES): CCNC(=O)c1c(C2CCN(c3cc(OC)ccc3F)CC2)oc2cc(C(CC(=O)O)C3CC3)ccc12 (stereo not shown) [Compound 312]
- EC50: 100 to 500 nM
- Efficacy (%): † (100 ≥ Efficacy (%) > 50)

Structure (SMILES): COc1ccc(F)c(N2CCC(c3oc4cc(C(CC(=O)O)C5CC5)ccc4c3C(=O)Nc3ccccc3)CC2)c1 (stereo not shown) [Compound 314]
- EC50: 100 to 500 nM
- Efficacy (%): †† (150 ≥ Efficacy (%) > 100)

Structure (SMILES): COc1ccc(F)c(N2CCC(c3oc4cc(C(CC(=O)O)C5CC5)ccc4c3C(=O)Nc3ccc(C(C)(C)C)cc3)CC2)c1 (stereo not shown) [Compound 315]
- EC50: 100 to 500 nM
- Efficacy (%): †† (150 ≥ Efficacy (%) > 100)

Structure (SMILES): COc1ccc(F)c(N2CCC(c3oc4cc(C(CC(=O)O)C5CC5)ccc4c3C(=O)Nc3cccc(C(C)(C)C)c3)CC2)c1 (stereo not shown) [Compound 316]
- EC50: 100 to 500 nM
- Efficacy (%): †† (150 ≥ Efficacy (%) > 100)

Structure (SMILES): COc1ccc(F)c(N2CCC(c3oc4cc(C(CC(=O)O)C5CC5)ccc4c3C(=O)Nc3ccc(F)cc3)CC2)c1 (stereo not shown) [Compound 317]
- EC50: 100 to 500 nM
- Efficacy (%): † (100 ≥ Efficacy (%) > 50)

Structure (SMILES): COc1ccc(F)c(N2CCC(c3oc4cc(C(CC(=O)O)C5CC5)ccc4c3C(=O)Nc3ccccc3C)CC2)c1 (stereo not shown) [Compound 319]
- EC50: 100 to 500 nM
- Efficacy (%): †† (150 ≥ Efficacy (%) > 100)

Structure (SMILES): COc1ccc(F)c(N2CCC(c3oc4cc(C(CC(=O)O)C5CC5)ccc4c3C(=O)Nc3cccc(C)c3)CC2)c1 (stereo not shown) [Compound 320]
- EC50: 10 to 100 nM
- Efficacy (%): †† (150 ≥ Efficacy (%) > 100)

Structure (SMILES): COc1ccc(F)c(N2CCC(c3oc4cc(C(CC(=O)O)C5CC5)ccc4c3C(=O)Nc3ccc(C)cc3)CC2)c1 (stereo not shown) [Compound 321]
- EC50: 100 to 500 nM
- Efficacy (%): †† (150 ≥ Efficacy (%) > 100)

Structure (SMILES): COc1cccc(N2CCC(c3oc4cc([C@@H](CC(=O)O)C5CC5)ccc4c3C(=O)Nc3ccccc3Cl)CC2)c1F [Compound 322]
- EC50: ≤ 10 nM
- Efficacy (%): †† (150 ≥ Efficacy (%) > 100)

Structure (SMILES): COc1cccc(N2CCC(c3oc4cc([C@@H](CC(=O)O)C5CC5)ccc4c3C(=O)Nc3ccccc3F)CC2)c1F [Compound 323]
- EC50: ≤ 10 nM
- Efficacy (%): †† (150 ≥ Efficacy (%) > 100)

Structure (SMILES): COc1cccc(N2CCC(c3oc4cc([C@@H](CC(=O)O)C5CC5)ccc4c3C(=O)Nc3ccccc3C)CC2)c1F [Compound 324]
- EC50: ≤ 10 nM
- Efficacy (%): †† (150 ≥ Efficacy (%) > 100)

Structure (SMILES): COc1cccc(N2CCC(c3oc4cc([C@@H](CC(=O)O)C5CC5)ccc4c3C(=O)Nc3cccc(C)c3)CC2)c1F [Compound 325]
- EC50: 100 to 500 nM
- Efficacy (%): †† (150 ≥ Efficacy (%) > 100)

Structure (SMILES): CCC(c1ccccc1OC)N1CCC(c2oc3cc(C(CC(=O)O)C4CC4)ccc3c2C(=O)Nc2ccccc2F)CC1 (stereo not shown) [Compound 326]
- EC50: 100 to 500 nM
- Efficacy (%): †† (150 ≥ Efficacy (%) > 100)

Structure (SMILES): CC(c1ccccc1OC(F)(F)F)N1CCC(c2oc3cc(C(CC(=O)O)C4CC4)ccc3c2C(=O)Nc2ccccc2F)CC1 (stereo not shown) [Compound 327]
- EC50: 100 to 500 nM
- Efficacy (%): †† (150 ≥ Efficacy (%) > 100)

Structure (SMILES): COc1ccccc1C(C)N1CCC(c2oc3cc(C(CC(=O)O)C4CC4)ccc3c2C(=O)Nc2ccccc2F)CC1 (stereo not shown) [Compound 328]
- EC50: > 500 nM
- Efficacy (%): †† (150 ≥ Efficacy (%) > 100)

Structure (SMILES): Cc1ccccc1NC(=O)c1c(C2CCN(c3ccc4c(c3)OCO4)CC2)oc2cc([C@@H](CC(=O)O)C3CC3)ccc12 [Compound 330]
- EC50: 10 to 100 nM
- Efficacy (%): †† (150 ≥ Efficacy (%) > 100)

Structure (SMILES): O=C(O)C[C@H](c1ccc2c(C(=O)Nc3ccccc3F)c(C3CCN(c4ccc5c(c4)OCO5)CC3)oc2c1)C1CC1 [Compound 331]
- EC50: 100 to 500 nM
- Efficacy (%): †† (150 ≥ Efficacy (%) > 100)

Structure (SMILES): Cc1ccc(Cl)c(NC(=O)c2c(C3CCN(c4ccc5c(c4)OCO5)CC3)oc3cc([C@@H](CC(=O)O)C4CC4)ccc23)c1 [Compound 332]
- EC50: ≤ 10 nM
- Efficacy (%): †† (150 ≥ Efficacy (%) > 100)

Structure (SMILES): O=C(O)C[C@H](c1ccc2c(C(=O)Nc3cc(F)ccc3Cl)c(C3CCN(c4ccc5c(c4)OCO5)CC3)oc2c1)C1CC1 [Compound 333]
- EC50: ≤ 10 nM
- Efficacy (%): †† (150 ≥ Efficacy (%) > 100)

Structure (SMILES): O=C(O)C[C@H](c1ccc2c(C(=O)Nc3cc(F)ccc3Br)c(C3CCN(c4ccc5c(c4)OCO5)CC3)oc2c1)C1CC1 [Compound 334]
- EC50: ≤ 10 nM
- Efficacy (%): †† (150 ≥ Efficacy (%) > 100)
